Source: ChEMBL document CHEMBL5728596, “Inhibitors of cysteine proteases and methods of use thereof” (2021)

Experiment: Evaluation of Antiviral Activity of Compounds Against Human Coronavirus (HCov) 229E and OC43 in the Cytopathic Effect (CPE) Assays: Compounds were assayed using standard methods against multiple coronaviral strains, including HCoV 229E and OC43 strains. […] The antiviral activity of compounds was calculated based on the protection of the virus-induced CPE at each concentration normalized by the virus control.

COc1cccc2[nH]c(C(=O)N[C@@H](CC(C)(F)F)C(=O)N[C@H](C#N)C[C@@H]3CCNC3=O)cc12 (single isomer, unassigned)
EC50: < 22 µM

COc1cccc2[nH]c(C(=O)N[C@@H](CC(C)C)C(=O)N[C@@H](C[C@@H]3CCNC3=O)[C@H](C#N)N3CCCC3)cc12 (single isomer, unassigned)
EC50: < 22 µM

N#C[C@H](C[C@@H]1CCNC1=O)NC(=O)[C@H](CC1CC1)NC(=O)c1cc2cc(Cl)ccc2[nH]1
EC50: < 22 µM

COc1cccc2[nH]c(C(=O)N3C[C@H](OC)C[C@H]3C(=O)N[C@H](C#N)C[C@@H]3CCNC3=O)cc12
EC50: < 22 µM

CC(C)C[C@H](NC(=O)c1cc2c(OC(F)F)cccc2[nH]1)C(=O)N[C@H](C#N)C[C@@H]1CCNC1=O
EC50: < 22 µM

CCCOc1cccc2[nH]c(C(=O)N[C@@H](CC(C)C)C(=O)N[C@H](C#N)C[C@@H]3CCNC3=O)cc12
EC50: < 22 µM

CCCN1C(=N)C([C@H](C[C@@H]2CCNC2=O)NC(=O)[C@H](CC(C)C)NC(=O)c2cc3c(OC)cccc3[nH]2)OC1=O (stereo partly drawn)
EC50: > 30 µM

N#C[C@H](C[C@@H]1CCCNC1=O)NC(=O)C1CC2(CN1C(=O)c1cc3cccc(Cl)c3[nH]1)CC(F)(F)C2 (single isomer, unassigned)
EC50: < 22 µM

COc1cccc2[nH]c(C(=O)N[C@@H](CC(C)C)C(=O)N[C@H](/C=C/S(C)(=O)=O)C[C@@H]3CCNC3=O)cc12
EC50: > 30 µM

N#C[C@H](C[C@@H]1CCNC1=O)NC(=O)[C@H](CC1CC1)NC(=O)c1cc2cccc(Cl)c2[nH]1
EC50: < 22 µM

COc1cccc2[nH]c(C(=O)N3C[C@H](SC)C[C@H]3C(=O)N[C@H](C#N)C[C@@H]3CCNC3=O)cc12
EC50: 6 µM

COc1cccc2[nH]c(C(=O)N[C@@H](CC(C)C)C(=O)NC(C#N)c3cccnc3)cc12 (stereo partly drawn)
EC50: 6 µM

COc1cccc2[nH]c(C(=O)N[C@@H](CC(C)C)C(=O)N[C@@H](C[C@@H]3CCNC3=O)[C@@H](C#N)N3CCCC3)cc12 (single isomer, unassigned)
EC50: < 22 µM

COc1cccc2[nH]c(C(=O)N3C[C@@H](C45CC(C4)C5)C[C@H]3C(=O)N[C@H](C#N)C[C@@H]3CCNC3=O)cc12 (single isomer, unassigned)
EC50: < 22 µM

COc1cccc2[nH]c(C(=O)N[C@@H](CC(C)(C)C)C(=O)N[C@H](C#N)C[C@@H]3CCCNC3=O)cc12
EC50: < 22 µM

N#C[C@H](C[C@@H]1CCCNC1=O)NC(=O)C1CC2(CCCCC2)CN1C(=O)c1cc2cccc(Cl)c2[nH]1 (single isomer, unassigned; isomer 1)
EC50: < 22 µM

COc1cccc2[nH]c(C(=O)N[C@@H](CC(C)C)C(=O)N[C@@H](C[C@@H]3CCNC3=O)C(C#N)Nc3ccccc3)cc12 (stereo partly drawn)
EC50: 6 µM

CC(C)C[C@H](NC(=O)c1nc2ncccc2[nH]1)C(=O)N[C@H](C#N)C[C@@H]1CCNC1=O
EC50: 6 µM

COc1cccc2[nH]c(C(=O)N[C@@H](CC(C)C)C(=O)N[C@H](C#N)C[C@@H]3CCNC3=O)cc12
EC50: < 22 µM

COc1cccc2[nH]c(C(=O)N[C@@H](CC3CCC3)C(=O)N[C@H](C#N)C[C@@H]3CCNC3=O)cc12
EC50: < 22 µM

N#C[C@H](C[C@@H]1CCCNC1=O)NC(=O)[C@@H]1CC2(CCCCC2)CN1C(=O)c1cc2ccc(Cl)cc2[nH]1 (single isomer, unassigned)
EC50: < 22 µM

COc1cccc2[nH]c(C(=O)N[C@@H](CC(C)C)C(=O)N[C@@H](C[C@@H]3CCNC3=O)C(C#N)NCC(=O)O)cc12 (stereo partly drawn)
EC50: < 22 µM

COc1cccc2[nH]c(C(=O)N3C[C@H](C45CC(C4)C5)C[C@H]3C(=O)N[C@H](C#N)C[C@@H]3CCNC3=O)cc12 (single isomer, unassigned)
EC50: < 22 µM
